Common to all, as to assay: growth of human tumour cells (NCI), 48 h
Experiment [1] deals with IGROV-1.
In experiment [2] the test system is UACC-257.
For experiment [3], the system named is MDA-MB-435.
Experiment [4] concerns DU-145.
Experiment [5] concerns BT-549.
Experiment [6] relates to OVCAR-5.
Experiment [7] concerns NCI-H23.
Experiment [8] concerns MCF7.
In experiment [9] the test system is OVCAR-4.
For experiment [10], the system named is PC-3.
Experiment [11] relates to MOLT-4.
Experiment [12] has as its system NCI-H226.
For experiment [13], the system named is A549.
For experiment [14], the system named is HOP-92.
The subject of experiment [15] is SR.
Experiment [16] has as its system U-251.
Experiment [17] concerns SW-620.
Experiment [18] deals with MDA-N.
Experiment [19] relates to HCT-15.
Experiment [20] relates to NCI-H460.

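Five compound concentrations were applied to cells in 96-well plates for 48 hours; endpoints were derived by simple linear interpolation of the resulting dose-response curve. GI50: concentration for 50% inhibition of growth.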 Activity calls are given as the source filed them. Rule as the data show it: active = GI50 up to about 1.1 µM and inactive = higher. Where only a bound is given, the exact number is not on record here.

For `CCC1c2[nH]c3ccccc3c2C[C@H]2C(=O)NC(C)C(=O)N12` (stereo not given in full), the GI50 in experiment [1], in [2], in experiment [3], in experiment [4], in experiment [5] and in [6] was > 100 µM (inactive) throughout. Moreover, the GI50 in experiment [7], in [8], in experiment [9], in experiment [10], in experiment [11] and in experiment [12] was > 100 µM (inactive) in each case. Besides, the GI50 in experiment [13], in [14], in experiment [15], in experiment [16], in [17] and in experiment [18] was > 100 µM (inactive) each time. The molecule further gave a GI50 in [19] of over 100 µM.
For the molecule `CC(O)c1cc2c(s1)C(=O)c1ccsc1C2=O` (stereo not given), the GI50 in [1] was 0.468 µM (active); in experiment [2], 0.0167 µM (active); in [3] it was < 0.01 µM (active); in experiment [4], 0.0489 µM (active); in experiment [5], 0.0815 µM (active); in experiment [6], 0.14 µM (active). Moreover, the GI50 in experiment [7] was 0.0169 µM (active); in [8] it was 0.0457 µM (active); in experiment [9], 0.212 µM (active); in [10] it was 0.0632 µM (active); in [11], 0.213 µM (active); in [12], 0.48 µM (active). The GI50 is 0.189 µM (active) in experiment [13]; 0.265 µM (active) in [14]; 0.103 µM (active) in experiment [15]; 0.0944 µM (active) in experiment [16]; 0.138 µM (active) in [17]; 0.0139 µM (active) in [18]. In experiment [19], this molecule gave a GI50 of 0.0409 µM.
Regarding `Cc1ccc(-c2c(C#N)c(S)n(NS(=O)(=O)c3ccc(C)cc3)c(=O)c2C#N)cc1`, the GI50 in experiment [1] is 16.7 µM (inactive); in experiment [2], 40 µM (inactive); in experiment [3] it was 22.3 µM (inactive); in [4], 41.8 µM (inactive); in [5], 16.6 µM (inactive); in experiment [6], 27.4 µM (inactive). Also, the GI50 in experiment [7] is 18.5 µM (inactive); in experiment [8] it was 31.6 µM (inactive); in experiment [9], 15.5 µM (inactive); in experiment [10], 22.8 µM (inactive); in experiment [11], 24.2 µM (inactive); in experiment [12], 11.7 µM (inactive). Further, the GI50 in experiment [13] was 39.2 µM (inactive); in experiment [14], 22.6 µM (inactive); in experiment [15], 29.6 µM (inactive); in [16] it was 18.1 µM (inactive); in experiment [17], 19.9 µM (inactive); in experiment [18] it was 35.6 µM (inactive). This molecule showed a GI50 in [19] of 20.2 µM.
Take `O=c1c(O)c(-c2cc(O)c(O)cc2O)oc2cc(O)c(C3OC(CO)C(O)C(O)C3O)c(O)c12` (stereo not given): the GI50 in experiment [1], in experiment [2], in experiment [3], in experiment [20], in [4] and in experiment [5] was > 100 µM (inactive) in each case. The GI50 in experiment [6], in experiment [8], in experiment [9], in experiment [10], in [11] and in experiment [12] was > 100 µM (inactive) in each case. The GI50 in experiment [13], in experiment [14], in experiment [15], in experiment [16], in experiment [17] and in experiment [18] was > 100 µM (inactive) throughout. Besides, the GI50 in [19] was over 100 µM.
Regarding `O=P1(N(CCCl)CCCl)Oc2c(Cl)cc(Cl)c(Cl)c2Cc2c(Cl)c(Cl)cc(Cl)c2O1`, the GI50 in experiment [2] is 59.7 µM (inactive); in [3] it was 60.5 µM (inactive); in [20], 25.2 µM (inactive); in [4], 71.1 µM (inactive); in experiment [5], > 100 µM (inactive); in [6], 30.8 µM (inactive). Also, the GI50 in experiment [7] was 21.4 µM (inactive); in experiment [8] it was 64.7 µM (inactive); in experiment [9] it was 26.7 µM (inactive); in experiment [10] it was 23.2 µM (inactive); in [11], 95.7 µM (inactive); in [12] it was 26.9 µM (inactive). Besides, the GI50 is 38.5 µM (inactive) in experiment [13]; 24.5 µM (inactive) in [14]; 35.2 µM (inactive) in [15]; 96.6 µM (inactive) in experiment [16]; 47.4 µM (inactive) in [17]; 67.8 µM (inactive) in experiment [18]. This molecule had a GI50 in experiment [19] of 48 µM.
Take `CC(=O)OCC1OC(n2c3c(cc(C#N)c2=S)CCCCC3)C(OC(C)=O)C(OC(C)=O)C1OC(C)=O` (stereo not given): the GI50 in [1], in experiment [2], in experiment [3], in [20], in experiment [4] and in experiment [5] was > 100 µM (inactive) each time. Further, the GI50 in experiment [6], in experiment [7], in experiment [8], in experiment [9], in experiment [10] and in [11] was > 100 µM (inactive) in each case. In addition, the GI50 in [12], in [13], in [14], in experiment [15], in experiment [16] and in experiment [18] was > 100 µM (inactive) each time. Moreover, the GI50 in experiment [19] is over 100 µM.
Regarding `O=C1c2ccccc2C(=O)c2oc(Br)cc21`, the GI50 in [1] was 1.24 µM (inactive); in experiment [2] it was 0.266 µM (active); in experiment [3], 0.159 µM (active); in experiment [20], 0.845 µM (active); in experiment [4], 0.214 µM (active); in experiment [5] it was 1.16 µM (inactive). Further, the GI50 in [6] was 1.67 µM (inactive); in [7], 0.244 µM (active); in experiment [8] it was 0.46 µM (active); in experiment [9], 1.87 µM (inactive); in [10], 2.26 µM (inactive); in experiment [11], 1.8 µM (inactive). Further, the GI50 in experiment [12] is 1.41 µM (inactive); in experiment [13], 0.344 µM (active); in experiment [14], 2.02 µM (inactive); in [15], 1.09 µM (active); in experiment [16], 1.26 µM (inactive); in [17], 0.34 µM (active). For the same molecule, the results for the GI50 in experiment [18] and in experiment [19] were 0.132 µM (active) and 0.566 µM, respectively.
Turning to `Cc1c(-c2ccccc2)c(C#N)c2nnn(-c3cccc(Cl)c3)c(=O)n12`, the GI50 in experiment [1] was 54.8 µM (inactive); in experiment [2] it was > 100 µM (inactive); in [3] it was > 100 µM (inactive); in experiment [20], > 100 µM (inactive); in [4] it was 68.9 µM (inactive); in [5], 88.7 µM (inactive). The GI50 in experiment [6] was > 100 µM (inactive); in [7] it was > 100 µM (inactive); in [8] it was 43.9 µM (inactive); in experiment [9] it was 76.2 µM (inactive); in experiment [10], 26.5 µM (inactive); in experiment [12], 48.5 µM (inactive). Further, the GI50 in [14] was 44.9 µM (inactive); in experiment [15], 12.6 µM (inactive); in experiment [16], 68.4 µM (inactive); in experiment [17], 46.8 µM (inactive); in experiment [18], > 100 µM (inactive); in [19], 41.1 µM.
`O=C1c2ccccc2-c2ccc(NC(=O)C3CCCCC3C(=O)O)cc21` (stereo not given): the GI50 in experiment [1], in experiment [2], in [3], in experiment [20], in experiment [4] and in [5] was > 100 µM (inactive) each time. The GI50 was > 100 µM (inactive) in experiment [6]; > 100 µM (inactive) in [7]; 85.5 µM (inactive) in experiment [8]; > 100 µM (inactive) in experiment [9]; > 100 µM (inactive) in experiment [10]; > 100 µM (inactive) in experiment [11]. The GI50 in [12], in experiment [13], in [14], in experiment [15], in experiment [16] and in experiment [17] was > 100 µM (inactive) throughout. Moreover, the GI50 in experiment [18] was > 100 µM (inactive); in experiment [19], over 100 µM.
As for `Cc1nc(Cl)c2sc(=S)n(-c3ccc(F)cc3)c2n1`, the GI50 in experiment [1] was 1.74 µM (inactive); in [2] it was 2.54 µM (inactive); in [3] it was 2.59 µM (inactive); in [20] it was 13.7 µM (inactive); in [4] it was 1.51 µM (inactive); in experiment [5] it was 2.59 µM (inactive). For the same molecule, the GI50 was 10.8 µM (inactive) in experiment [6]; 1.27 µM (inactive) in experiment [7]; 2.84 µM (inactive) in experiment [8]; 13.6 µM (inactive) in experiment [9]; 19.9 µM (inactive) in experiment [10]; 17.4 µM (inactive) in experiment [12]. For the same molecule, the GI50 is 12.8 µM (inactive) in [13]; 14.4 µM (inactive) in [14]; 1.39 µM (inactive) in experiment [15]; 5.06 µM (inactive) in [16]; 3.7 µM (inactive) in experiment [17]; 1.87 µM (inactive) in experiment [18]. The GI50 in experiment [19] was 3.21 µM.
In the case of `CC#CC#C/C(=C/C=CC(=O)OC)SC`, the GI50 in [1], in experiment [2], in experiment [3], in experiment [20], in [4] and in experiment [5] was > 100 µM (inactive) throughout. The GI50 in [6], in experiment [8], in experiment [9], in experiment [10], in experiment [11] and in experiment [12] was > 100 µM (inactive) in each case. Moreover, the GI50 in [13] was > 100 µM (inactive); in [14] it was > 100 µM (inactive); in experiment [15], > 10 µM (inactive); in experiment [16], > 100 µM (inactive); in [17] it was > 100 µM (inactive); in experiment [18] it was > 100 µM (inactive). This molecule also had a GI50 in experiment [19] of over 100 µM.

(Values after ChEMBL document CHEMBL1201862, “PubChem BioAssay data set” (2004).)
